*1 amine or outer side, *2 acyl side, *3 side chain or, on linkers, in order; H or OH if unused. Where a SMILES comes first, the peptide text is derived from it. Bridges are numbered along the chain shown (N, C = ends). [ ]: non-standard residue; d: D form. 3Aminoazetidine3carboxyl = O=C(C1(N[*:1])CN([*:3])C1)[*:2]; Trp(7-aza) = N[C@@H](Cc1c[nH]c2ncccc12)C(=O)O; hAad = O=C([C@H](CCCCC(=O)[*:3])N[*:1])[*:2]; mXylylene(5-F) = Fc1cc(C[*:1])cc(C[*:2])c1; mXylylene = c1cc(C[*:1])cc(C[*:2])c1; d(aThr) = C[C@@H](O)[C@@H](N)C(=O)O; aThr = C[C@H](O)[C@H](N)C(=O)O; αMeOrn = C[C@](N)(CCCN)C(=O)O; Chg = N[C@H](C(=O)O)C1CCCCC1; Tle = CC(C)(C)[C@H](N)C(=O)O; αMeV = CC(C)[C@](C)(N)C(=O)O; Dab = NCC[C@H](N)C(=O)O; Nva = CCC[C@H](N)C(=O)O; Aib = CC(C)(N)C(=O)O; Ahx = NCCCCCC(=O)O; GABA = NCCCC(=O)O; Mpa = O=C(O)CCS
Biological target: human PCSK9 / human LDLR EGFa domain interaction (Homo sapiens, UniProt Q8NBP7)
Sequence (Q8NBP7 153-692): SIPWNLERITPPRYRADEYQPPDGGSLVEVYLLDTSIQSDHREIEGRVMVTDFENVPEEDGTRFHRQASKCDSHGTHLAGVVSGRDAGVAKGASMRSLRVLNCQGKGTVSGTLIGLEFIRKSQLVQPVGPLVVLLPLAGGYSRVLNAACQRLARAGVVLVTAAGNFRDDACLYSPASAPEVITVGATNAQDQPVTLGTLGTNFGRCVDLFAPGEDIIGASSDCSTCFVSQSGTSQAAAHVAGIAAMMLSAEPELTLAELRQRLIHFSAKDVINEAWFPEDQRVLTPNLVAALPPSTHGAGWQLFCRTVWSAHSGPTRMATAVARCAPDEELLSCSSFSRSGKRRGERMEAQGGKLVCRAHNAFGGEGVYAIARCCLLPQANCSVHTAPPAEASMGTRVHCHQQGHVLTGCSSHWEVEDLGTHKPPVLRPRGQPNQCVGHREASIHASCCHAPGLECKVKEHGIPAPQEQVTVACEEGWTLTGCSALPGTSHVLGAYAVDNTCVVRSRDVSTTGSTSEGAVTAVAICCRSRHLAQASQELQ
Sequence (Q8NBP7 31-152 partner limits assumed): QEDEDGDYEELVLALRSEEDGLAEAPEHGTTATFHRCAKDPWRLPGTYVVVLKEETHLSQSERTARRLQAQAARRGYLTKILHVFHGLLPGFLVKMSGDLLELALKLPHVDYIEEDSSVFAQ
Test: TR-FRET assay of inhibition of the PCSK9-LDLR protein-protein interaction
Type: binding
Conditions: 20 nM biotinylated human PCSK9 + 20 nM his-tagged human LDLR EGFa domain, 2 hours room temperature
Experimental: A time-resolved fluorescence resonance energy (TR-FRET) assay was used to measure inhibition of the PCSK9-LDLR protein-protein interaction. Briefly, 20 nM avitag-biotinylated human PCSK9 was incubated with 20 nM his-tagged human LDLR EGFa domain in the presence of 5 nM LANCE Ulight Streptavidin (Perkin Elmer) and 5 nM europium-Anti-6×His (Perkin Elmer) for 2 hours covered at room temperature in buffer containing 50 mM HEPES, 150 mM NaCl, 5 mM CaCl2, 0.01% BSA and 0.01% Surfactant P20. Compounds were tested in dose-response and concentrations giving half-maximal inhibition calculated using a 4-parameter fit equation.

IC50 [nM]	SMILES
100 to 1000	CCC[C@@H]1NC(=O)[C@H](Cc2c[nH]c3ncccc23)NC(=O)[C@@H]([C@@H](C)O)NC(=O)[C@@H]2CCCCC(=O)NCC[C@H](NC1=O)C(=O)N[C@@H](Cc1ccc(O)cc1)C(=O)N[C@@H](C1CCCCC1)C(=O)N[C@@H]([C@@H](C)O)C(=O)N[C@H](C(N)=O)CSCc1cccc(c1)CSCCC(=O)N[C@@H](C(C)(C)C)C(=O)N[C@@H](Cc1ccc(O)cc1)C(=O)N2 [Compound 108] ([Mpa][Tle]Y[hAad][d(aThr)][Trp(7-aza)][Nva][Dab]Y[Chg]TC-NH2; linker 1-12 via mXylylene; lactam 4-8)
100 to 1000	CCC[C@@H]1NC(=O)[C@H](Cc2c[nH]c3ncccc23)NC(=O)[C@H]([C@@H](C)O)NC(=O)[C@@H]2CCCCNC(=O)CC[C@H](NC1=O)C(=O)N[C@@H](Cc1ccc(O)cc1)C(=O)NC(C)(C)C(=O)N[C@@H]([C@@H](C)O)C(=O)N[C@H](C(N)=O)CSCc1cccc(c1)CSCCC(=O)N[C@@H](C(C)(C)C)C(=O)N[C@@H](Cc1ccc(O)cc1)C(=O)N2 [Compound 114] ([Mpa][Tle]YKT[Trp(7-aza)][Nva]EY[Aib]TC-NH2; linker 1-12 via mXylylene; lactam 4-8)
100 to 1000	CCC[C@@H]1NC(=O)[C@H](Cc2c[nH]c3ncccc23)NC(=O)[C@H]([C@@H](C)O)NC(=O)[C@@H]2CCCCNC(=O)CC[C@@H](NC1=O)C(=O)N[C@@H](Cc1ccc(O)cc1)C(=O)N[C@@H](C1CCCCC1)C(=O)N[C@@H]([C@@H](C)O)C(=O)NCCCC(=O)NCCCCCC(=O)N[C@@H](C(C)(C)C)C(=O)N[C@@H](Cc1ccc(O)cc1)C(=O)N2 [Compound 117] (cyclo([Ahx][Tle]YKT[Trp(7-aza)][Nva][dE]Y[Chg]T[GABA]); lactam 4-8)

Biological target: T1, PCSK9 (Homo sapiens, UniProt Q8NBP7)
T1 construct: biotin (biotinylated)
T1 sequence (Q8NBP7 153-692): as the sequence (Q8NBP7 153-692) above
Test: PCSK9 Alexa FRET Standard assay (displacement of AlexaFluor647-tagged cyclic peptide Reagent A)
Type: binding
Conditions: 0.5 nM PCSK9, 20 nM AF cyclic peptide Reagent A
Experimental: A solution containing 1 nM biotinylated PCSK9+2.5 nM Lance Streptavidin Europium (Strep-Eu) was made in 50 mM HEPES pH 7.4, 0.15 M NaCl, 5 mM CaCl2, 0.01% BSA, and 0.01% Surfactant P20. A separate solution containing 40 nM of the AlexaFluor tagged cyclic peptide was made in the same buffer system. An Echo was used to transfer 0.750 ul of compound to an assay plate followed by the addition of 15 ul of PCSK9+Stept-Eu and 15 ul of AF peptide. The final assay volume was 30.750 ul containing 0.5 nM PCSK9, 1.25 nM Strep-Eu, and 20 nM AF cyclic peptide. The reaction was incubated at room temperature for at least two hours prior to fluorescence measurements using an Envision Multilabel Reader. IC50 values were determined by fitting data to a sigmoidal dose-response curve using nonlinear regression. Ki was then calculated from the IC50 and the KD of AF cyclic peptide. Counts (B-counts) of the europium-labeled PCSK9 were followed to observe if compounds were […]. A fall off of the B-counts likely indicated a false positive of inhibition. Data from this procedure was reported as “A=‘numerical value’ (nanomolar)”

IC50 [nM]	SMILES
1 to 100	CC(C)[C@]1(C)NC(=O)[C@H](Cc2ccc(O)cc2)NC(=O)[C@H](C)NC(=O)[C@](C)(CCCN)NC(=O)[C@H](Cc2c[nH]c3ncccc23)NC(=O)[C@H]([C@@H](C)O)NC(=O)[C@@H]2CCCN2C(=O)[C@H](Cc2ccc(O)cc2)NC(=O)[C@H](C(C)(C)C)NC(=O)CCSCc2cccc(c2)CSC[C@H](C(N)=O)NC(=O)[C@H]([C@@H](C)O)NC1=O [Compound 025] ([Mpa][Tle]YPT[Trp(7-aza)][αMeOrn]AY[αMeV]T[dC]-NH2; linker 1-12 via mXylylene)
1 to 100	CC(=O)N[C@H]1CSCc2cc(F)cc(c2)CSC[C@@H](C(N)=O)NC(=O)[C@H]([C@@H](C)O)NC(=O)[C@](C)(C(C)C)NC(=O)[C@H](Cc2ccc(O)cc2)NC(=O)[C@H](C)NC(=O)C(C)(C)NC(=O)[C@H](Cc2c[nH]c3ncccc23)NC(=O)[C@H]([C@@H](C)O)NC(=O)[C@@H]2CCCN2C(=O)[C@H](Cc2ccc(O)cc2)NC(=O)[C@H](C(C)(C)C)NC1=O [Compound 026] (Ac-C[Tle]YPT[Trp(7-aza)][Aib]AY[αMeV]TC-NH2; linker 1-12 via mXylylene(5-F))
100 to 1000	CC(=O)N[C@H]1CSCc2cccc(c2)CSC[C@H](C(N)=O)NC(=O)[C@H]([C@@H](C)O)NC(=O)[C@](C)(C(C)C)NC(=O)[C@H](Cc2ccc(O)cc2)NC(=O)[C@H](C)NC(=O)C(C)(C)NC(=O)[C@H](Cc2c[nH]c3ncccc23)NC(=O)[C@H]([C@H](C)O)NC(=O)[C@@H]2CCCN2C(=O)[C@H](Cc2ccc(O)cc2)NC(=O)[C@H](C(C)(C)C)NC1=O [Compound 029] (Ac-C[Tle]YP[aThr][Trp(7-aza)][Aib]AY[αMeV]T[dC]-NH2; linker 1-12 via mXylylene)
1 to 100	CC(=O)N[C@H]1CSCc2cccc(c2)CSC[C@H](C(N)=O)NC(=O)[C@H]([C@@H](C)O)NC(=O)[C@](C)(C(C)C)NC(=O)[C@H](Cc2ccc(O)cc2)NC(=O)[C@H](C)NC(=O)[C@](C)(CCCN)NC(=O)[C@H](Cc2c[nH]c3ncccc23)NC(=O)[C@H]([C@@H](C)O)NC(=O)[C@@H]2CCCN2C(=O)[C@H](Cc2ccc(O)cc2)NC(=O)[C@H](C(C)(C)C)NC1=O [Compound 033] (Ac-C[Tle]YPT[Trp(7-aza)][αMeOrn]AY[αMeV]T[dC]-NH2; linker 1-12 via mXylylene)
1 to 100	CC(=O)N[C@H]1CSCc2cccc(c2)CSC[C@H](C(N)=O)NC(=O)[C@H]([C@@H](C)O)NC(=O)[C@](C)(C(C)C)NC(=O)[C@H](Cc2ccc(O)cc2)NC(=O)[C@H](C)NC(=O)C2(CNC2)NC(=O)[C@H](Cc2c[nH]c3ncccc23)NC(=O)[C@H]([C@@H](C)O)NC(=O)[C@@H]2CCCN2C(=O)[C@H](Cc2ccc(O)cc2)NC(=O)[C@H](C(C)(C)C)NC1=O [Compound 038] (Ac-C[Tle]YPT[Trp(7-aza)][3Aminoazetidine3carboxyl]AY[αMeV]T[dC]-NH2; linker 1-12 via mXylylene)
